Results on five compounds are retold here after ChEMBL document CHEMBL1201862, “PubChem BioAssay data set” (2004).

Assay [1] concerns the target T1, Caspase-3 (Homo sapiens, UniProt P42574).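 Further: Dose-response selectivity test against caspase-3 for candidate inhibitors of sentrin-specific proteases (SENPs).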
T1 sequence (P42574 whole entry): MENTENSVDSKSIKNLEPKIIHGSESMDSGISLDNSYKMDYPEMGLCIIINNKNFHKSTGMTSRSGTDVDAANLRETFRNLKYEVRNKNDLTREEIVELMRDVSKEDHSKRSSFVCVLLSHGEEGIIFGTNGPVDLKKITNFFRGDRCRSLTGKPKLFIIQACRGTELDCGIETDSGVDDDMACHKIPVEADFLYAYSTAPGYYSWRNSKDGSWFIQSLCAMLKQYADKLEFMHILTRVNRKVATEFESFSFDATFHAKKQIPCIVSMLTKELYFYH
It counts as functional.

Assay [2] concerns the target Cyclin-dependent kinase 5/CDK5 activator 1 (Homo sapiens, UniProt Q00535). Description: blockade of human CDK5 activity – biochemical, cherry-picked samples, set 2, dose response (AID 504545).
In assay [3] the target is T2, Sentrin-specific protease 6 (Homo sapiens, UniProt Q9GZR1).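 Further: Luminescence-based dose-response confirmatory assay of SENP6 inhibition, following up an ultra-high-throughput screen.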
T2 sequence (Q9GZR1 whole entry): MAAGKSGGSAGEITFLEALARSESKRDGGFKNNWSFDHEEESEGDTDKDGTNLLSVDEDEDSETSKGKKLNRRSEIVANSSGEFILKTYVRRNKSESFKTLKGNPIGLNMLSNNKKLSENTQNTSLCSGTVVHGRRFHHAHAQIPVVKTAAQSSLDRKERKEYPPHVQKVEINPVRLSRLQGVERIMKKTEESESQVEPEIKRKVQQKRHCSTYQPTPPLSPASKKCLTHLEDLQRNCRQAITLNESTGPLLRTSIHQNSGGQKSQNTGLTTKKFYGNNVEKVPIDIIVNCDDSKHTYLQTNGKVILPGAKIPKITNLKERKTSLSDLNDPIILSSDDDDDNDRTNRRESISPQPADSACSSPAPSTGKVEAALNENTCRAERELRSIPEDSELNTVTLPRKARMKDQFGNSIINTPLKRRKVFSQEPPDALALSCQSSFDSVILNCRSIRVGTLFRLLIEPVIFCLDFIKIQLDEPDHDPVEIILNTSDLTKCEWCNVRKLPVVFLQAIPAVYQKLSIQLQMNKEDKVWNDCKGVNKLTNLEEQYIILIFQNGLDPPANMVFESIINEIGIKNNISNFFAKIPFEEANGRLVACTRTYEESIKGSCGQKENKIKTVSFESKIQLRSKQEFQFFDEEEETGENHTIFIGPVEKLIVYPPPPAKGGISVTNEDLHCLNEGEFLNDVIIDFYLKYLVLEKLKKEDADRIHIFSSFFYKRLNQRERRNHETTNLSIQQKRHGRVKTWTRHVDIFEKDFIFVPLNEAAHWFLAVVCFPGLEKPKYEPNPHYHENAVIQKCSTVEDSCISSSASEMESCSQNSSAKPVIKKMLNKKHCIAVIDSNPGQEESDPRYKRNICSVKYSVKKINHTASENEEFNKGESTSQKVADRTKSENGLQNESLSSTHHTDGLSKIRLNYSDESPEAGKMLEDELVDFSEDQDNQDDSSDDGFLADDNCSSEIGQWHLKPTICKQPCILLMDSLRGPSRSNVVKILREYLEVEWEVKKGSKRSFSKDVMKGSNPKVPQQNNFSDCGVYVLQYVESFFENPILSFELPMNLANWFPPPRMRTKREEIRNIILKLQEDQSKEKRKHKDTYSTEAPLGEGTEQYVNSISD
In kind it is functional.

A short description of assay [4]: NIH-3T3 fibroblast cytotoxicity, dose response, cytotoxicity control, cell-based, fluorescence, Alamar Blue, secondary assay (AID 2327).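 Further: NIH-3T3 mouse fibroblasts cultured with fluconazole at 8 µg/mL.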 In kind it is functional. (In general: The colour change of resazurin is a common sign of viable cells or microbes.)
In assay [5] the target is T3, Serine/threonine-protein phosphatase (Candida dubliniensis (strain CD36 / CBS 7987 / NCPF 3949 / NRRLY-17841) (Yeast), UniProt B9W6M3).
T3 sequence (B9W6M3 whole entry): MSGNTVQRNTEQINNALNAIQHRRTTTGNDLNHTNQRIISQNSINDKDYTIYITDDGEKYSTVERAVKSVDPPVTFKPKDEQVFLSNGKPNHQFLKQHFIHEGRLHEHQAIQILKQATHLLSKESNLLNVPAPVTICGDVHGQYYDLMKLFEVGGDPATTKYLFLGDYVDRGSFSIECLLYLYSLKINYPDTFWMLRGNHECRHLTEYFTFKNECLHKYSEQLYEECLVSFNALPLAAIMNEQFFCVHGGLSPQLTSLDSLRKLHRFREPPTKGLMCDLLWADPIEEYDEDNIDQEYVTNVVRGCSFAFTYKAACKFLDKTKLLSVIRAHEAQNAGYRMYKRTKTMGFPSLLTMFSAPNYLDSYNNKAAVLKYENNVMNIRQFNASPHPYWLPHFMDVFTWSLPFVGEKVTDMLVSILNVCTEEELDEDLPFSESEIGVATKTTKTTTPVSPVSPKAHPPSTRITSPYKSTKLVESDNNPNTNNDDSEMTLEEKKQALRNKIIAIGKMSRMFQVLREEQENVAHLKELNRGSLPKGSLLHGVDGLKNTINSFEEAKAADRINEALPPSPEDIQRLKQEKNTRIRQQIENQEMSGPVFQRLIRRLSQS
The experiment in a line: blockers of CaCl2-induced CDRE-lacZ signaling – S. cerevisiae, luminescence, secondary, dose response (AID 2388).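 Further: yeast reporter cells carrying a calcineurin-responsive lacZ construct stimulated with calcium chloride; luminescent beta-galactosidase reporter signal in whole cells rather than isolated phosphatase activity; potency for inhibition where a drop in reporter signal means calcineurin blockade.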 It counts as functional, cell-based.

Assay [6] addresses T4, Sentrin-specific protease 7 (Homo sapiens, UniProt Q9BQF6).
T4 sequence (Q9BQF6 whole entry): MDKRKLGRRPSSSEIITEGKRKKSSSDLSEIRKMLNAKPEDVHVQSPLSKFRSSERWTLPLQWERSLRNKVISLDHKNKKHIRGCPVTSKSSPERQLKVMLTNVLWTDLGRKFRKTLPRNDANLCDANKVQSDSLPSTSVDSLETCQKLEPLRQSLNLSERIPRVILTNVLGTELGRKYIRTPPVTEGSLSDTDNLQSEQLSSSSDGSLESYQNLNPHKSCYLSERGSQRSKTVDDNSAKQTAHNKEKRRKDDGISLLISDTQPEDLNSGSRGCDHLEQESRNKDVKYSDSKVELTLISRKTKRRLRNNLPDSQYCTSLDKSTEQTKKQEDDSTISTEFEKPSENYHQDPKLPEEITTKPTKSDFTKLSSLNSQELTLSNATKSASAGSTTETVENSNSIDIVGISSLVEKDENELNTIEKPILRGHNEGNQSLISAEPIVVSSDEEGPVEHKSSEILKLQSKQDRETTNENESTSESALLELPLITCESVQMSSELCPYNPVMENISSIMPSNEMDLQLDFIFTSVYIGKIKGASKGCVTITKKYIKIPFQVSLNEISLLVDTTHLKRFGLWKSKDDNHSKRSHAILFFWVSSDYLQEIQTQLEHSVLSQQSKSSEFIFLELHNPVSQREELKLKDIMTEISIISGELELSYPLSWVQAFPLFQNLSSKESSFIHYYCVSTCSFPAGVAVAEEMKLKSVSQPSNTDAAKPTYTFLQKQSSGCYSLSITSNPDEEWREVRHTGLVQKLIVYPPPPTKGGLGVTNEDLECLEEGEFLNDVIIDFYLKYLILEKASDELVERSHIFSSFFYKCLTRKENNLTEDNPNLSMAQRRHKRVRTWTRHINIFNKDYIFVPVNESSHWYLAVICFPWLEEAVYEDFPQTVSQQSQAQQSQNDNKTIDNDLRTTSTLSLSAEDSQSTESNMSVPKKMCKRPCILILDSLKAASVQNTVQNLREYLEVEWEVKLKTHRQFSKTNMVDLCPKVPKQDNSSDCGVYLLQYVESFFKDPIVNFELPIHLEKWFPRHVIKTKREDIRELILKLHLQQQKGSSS
It counts as functional.

Assay [7] deals with T5, Sentrin-specific protease 8 (Homo sapiens, UniProt Q96LD8).
T5 sequence (Q96LD8 whole entry): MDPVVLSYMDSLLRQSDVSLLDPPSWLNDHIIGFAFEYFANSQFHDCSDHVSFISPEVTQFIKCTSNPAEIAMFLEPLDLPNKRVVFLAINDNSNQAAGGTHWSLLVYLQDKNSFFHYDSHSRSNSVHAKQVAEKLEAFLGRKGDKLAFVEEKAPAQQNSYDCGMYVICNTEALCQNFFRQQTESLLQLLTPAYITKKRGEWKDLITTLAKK
In kind it is functional.

The target in assay [8] is ATP-dependent molecular chaperone HSP82 (Candida albicans (strain WO-1) (Yeast), UniProt C4YTQ8). Description: steroid-induced GRE reporter decrease in yeast – S. cerevisiae, luminescence, Hsp90 inhibitor project, dose response (AID 2400).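 Further: beta-galactosidase luminescence from glucocorticoid response element reporter as proxy for Hsp90 function; inhibitor potency where signal loss means Hsp90 inhibition.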 It counts as functional, cell-based.
Chain of ATP-dependent molecular chaperone HSP82 (C4YTQ8 whole entry): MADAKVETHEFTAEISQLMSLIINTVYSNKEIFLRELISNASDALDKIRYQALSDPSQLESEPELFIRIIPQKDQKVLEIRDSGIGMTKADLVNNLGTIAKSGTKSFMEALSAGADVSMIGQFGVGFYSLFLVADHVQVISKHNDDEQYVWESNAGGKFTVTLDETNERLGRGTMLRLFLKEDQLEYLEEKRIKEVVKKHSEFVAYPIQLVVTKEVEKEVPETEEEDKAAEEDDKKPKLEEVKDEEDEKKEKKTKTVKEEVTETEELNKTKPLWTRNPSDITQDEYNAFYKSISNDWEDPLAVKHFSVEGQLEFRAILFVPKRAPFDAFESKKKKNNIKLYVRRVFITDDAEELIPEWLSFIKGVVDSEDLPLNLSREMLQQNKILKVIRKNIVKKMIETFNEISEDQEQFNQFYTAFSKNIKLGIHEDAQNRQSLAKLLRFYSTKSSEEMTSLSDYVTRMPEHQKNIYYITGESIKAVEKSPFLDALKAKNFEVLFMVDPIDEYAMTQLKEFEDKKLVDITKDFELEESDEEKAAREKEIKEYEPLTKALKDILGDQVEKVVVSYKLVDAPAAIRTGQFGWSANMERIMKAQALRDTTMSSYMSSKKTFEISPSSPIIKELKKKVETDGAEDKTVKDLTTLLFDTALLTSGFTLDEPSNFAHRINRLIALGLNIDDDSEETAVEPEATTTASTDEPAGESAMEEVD
A short description of assay [9]: fluconazole-exposed Candida albicans growth modulators – fluorescence, retest, confirmation (AID 2467). It counts as functional, cell-based.
Assay [10] in a line: blockers of bursicon-stimulated LGR2 cAMP reporter – cell-based, HEK293, CRE-luciferase reporter, cherry pick, set 2, dose response (AID 743343).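 Further: transfected cells were stimulated with diluted bursicon conditioned medium after compound addition.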 It counts as functional.
The nature of assay [11]: blockade of melanocortin 4 receptor signaling – cell-based, plate reader, cherry pick, counter-screen for LGR2 antagonist project, dose response (AID 743444).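 Further: transfected HEK 293 cells stimulated with alpha-MSH peptide; potency of inhibitors of the alpha-MSH evoked signal.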 In kind it is functional. (In general: A counterscreen serves to expose hits that act by an unwanted route or on another target.)
Assay [12] deals with HEK293. The experiment in a line: EBV LMP1 TES2 canonical NF-kB signalling blockers – cell-based, HEK293, luciferase, cherry-pick, dose response (AID 588343). It counts as functional. Particulars: Homo sapiens.
The test system of assay [13] is Vero. Description: viability of Vero cells under compound – cytotoxicity control for flavivirus capping enzyme inhibitors (AID 588742). It counts as functional. Particulars: Chlorocebus sabaeus.
Assay [14] concerns Streptococcus sp. 'group A'. The experiment in a line: Streptococcus pyogenes SK(-)GAS viability under kanamycin – luminescence, BacTiterGlo, confirmation, counter-screen for streptokinase expression inhibitor project, dose response (AID 1900). In kind it is functional, organism-based.
Assay [15] deals with Streptococcus. Description: GAS UMAA2166 growth inhibition – luminescence, BacTiterGlo, counter-screen for streptokinase expression inhibitor project, dose response (AID 1915).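 Further: potency for reduction of bacterial viability or growth.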 It counts as functional, organism-based.
In assay [16] the target is G-protein coupled receptor 55 (Homo sapiens, UniProt Q9Y2T6). Description: inhibition of LPI-stimulated GPR55 beta-arrestin translocation – imaging, U2OS, beta-arrestin-GFP, LPI agonist, primary screen (AID 2013).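 Further: antagonist potency measured as reduced agonist-driven arrestin aggregation.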 It counts as functional.
Chain of G-protein coupled receptor 55 (Q9Y2T6 whole entry): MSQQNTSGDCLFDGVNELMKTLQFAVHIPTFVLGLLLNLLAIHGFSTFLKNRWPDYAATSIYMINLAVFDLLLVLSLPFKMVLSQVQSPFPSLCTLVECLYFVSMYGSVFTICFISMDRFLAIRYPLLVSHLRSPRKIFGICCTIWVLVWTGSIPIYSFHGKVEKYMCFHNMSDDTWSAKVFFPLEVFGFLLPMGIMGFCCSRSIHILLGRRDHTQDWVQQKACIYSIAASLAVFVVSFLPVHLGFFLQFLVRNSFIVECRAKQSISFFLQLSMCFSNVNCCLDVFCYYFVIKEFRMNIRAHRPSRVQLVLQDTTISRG
Assay [17] addresses T6, Streptokinase A (Streptococcus pyogenes serotype M1, UniProt P10520).
T6 sequence (P10520 whole entry): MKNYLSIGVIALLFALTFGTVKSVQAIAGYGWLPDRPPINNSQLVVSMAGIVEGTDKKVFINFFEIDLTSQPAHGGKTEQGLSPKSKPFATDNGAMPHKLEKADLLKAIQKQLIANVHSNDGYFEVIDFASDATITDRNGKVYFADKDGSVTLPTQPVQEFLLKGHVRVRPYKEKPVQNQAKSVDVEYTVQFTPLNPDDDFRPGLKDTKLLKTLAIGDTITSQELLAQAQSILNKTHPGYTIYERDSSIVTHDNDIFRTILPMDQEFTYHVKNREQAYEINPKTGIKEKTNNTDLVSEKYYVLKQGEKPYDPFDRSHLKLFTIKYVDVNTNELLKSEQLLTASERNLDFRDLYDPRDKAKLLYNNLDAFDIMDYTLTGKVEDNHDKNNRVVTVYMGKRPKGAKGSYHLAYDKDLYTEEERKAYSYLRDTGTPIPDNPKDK
The experiment in a line: viability-normalized secreted streptokinase activity reduction – plasminogen activation absorbance, OD405, dose response (AID 1914).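 Further: secreted streptokinase activity via plasminogen activation per viability signal from cell pellet.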 In kind it is functional, Streptococcus pyogenes M1 GAS.

The source made the active and inactive calls.

Chain of Cyclin-dependent kinase 5/CDK5 activator 1 (Q00535 whole entry): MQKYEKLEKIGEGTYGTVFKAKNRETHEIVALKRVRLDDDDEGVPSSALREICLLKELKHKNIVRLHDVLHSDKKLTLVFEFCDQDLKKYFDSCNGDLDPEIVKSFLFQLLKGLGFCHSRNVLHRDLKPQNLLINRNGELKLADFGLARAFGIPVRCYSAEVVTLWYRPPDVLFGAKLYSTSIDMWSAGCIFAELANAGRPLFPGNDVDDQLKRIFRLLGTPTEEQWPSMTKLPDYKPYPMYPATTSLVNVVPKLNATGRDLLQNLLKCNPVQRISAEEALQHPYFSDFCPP
Chain of Cyclin-dependent kinase 5/CDK5 activator 1 (Q15078 whole entry, further chain): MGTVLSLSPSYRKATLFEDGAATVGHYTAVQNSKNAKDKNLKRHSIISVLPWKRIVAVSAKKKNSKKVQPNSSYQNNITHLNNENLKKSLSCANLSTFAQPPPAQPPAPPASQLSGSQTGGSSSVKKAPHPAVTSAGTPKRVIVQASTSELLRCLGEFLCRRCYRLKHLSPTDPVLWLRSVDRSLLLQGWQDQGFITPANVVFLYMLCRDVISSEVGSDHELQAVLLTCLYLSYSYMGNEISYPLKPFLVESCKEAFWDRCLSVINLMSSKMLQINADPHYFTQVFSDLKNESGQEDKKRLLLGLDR

What is called IC50 is the midpoint of a concentration-inhibition curve. Broadly, the AC50 is the concentration giving half of the maximal activity seen. By EC50 is commonly meant the concentration needed to bring the measured effect to its halfway point. Regarding `CCNc1nc(N)nc(-c2cc(Cl)ccc2O)n1`, the IC50 in [1] is 18.9 µM (active); in assay [3] it was 12 µM (active); in [6], 3.99 µM (active); in assay [7], 13.7 µM (active). For the same compound, the AC50 in [2] was 7.06 µM (active). Besides, the EC50 was 40.2 µM (active) in [4], > 180 µM (inactive) in [5], 20.1 µM (active) in assay [8] and 0.53 µM (active) in assay [9].

As for `CCOC(=O)c1cn2nc(N3CCCCC3)ccc2n1`, the AC50 in assay [10] was 2.62 µM (active); in [11], 5.1 µM (active); in [12] it was 2.8 µM (active).

Turning to `Cc1cnc(NC(=O)c2ccc(OCC3CCCO3)cc2)s1` (stereo unspecified), the AC50 is 4.84 µM (active) in assay [10], 5.51 µM (active) in assay [11] and 1.93 µM (active) in [12].

A word on the CC50: it is the concentration that lowers cell viability or growth by half. On to `O=C1C(=Cc2ccccc2[N+](=O)[O-])Cc2ccccc21`, for which the CC50 in assay [13] was 20.9 µM (active).

As for `COc1ccc(NC2=NCC(Cc3ccc(Br)cc3)S2)cc1` (stereo unspecified), the EC50 in assay [14] was 9.96 µM (active); in assay [15] it was > 150 µM (not active); in assay [17], > 150 µM (not active). Besides, the half-inhibitory concentration (IC50) in [16] was 1.31 µM (active). Moreover, in [12], the AC50 was 183 µM (active).
